Test results taken from US10227347B2, “Purinyl-N-hydroxyl pyrimidine formamide derivative, preparation methods and uses thereof” (Guizhou Bailing Group Pharmaceutical CO., LTD., priority 2015, dated 2019).
Where two headings read alike, the source gives them in different places.

Assays:
HDAC1 = molecular target: T1, HDAC1 (Homo sapiens, UniProt Q13547); experiment: In vitro HDAC1 enzymatic activity inhibition (Lys-Ac-AMC substrate); assay type: biochemical
T1 construct: purchased BPS Bioscience
Procedure: Determining the inhibition capability to HDAC activity through the substrate method of fluorophore 4-amino-7-coumarin coupled Ac-peptide (Lys-Ac-AMC). HDAC1 protein is purchased from BPS Bioscience Company; the reaction buffer system is a modified tris(hydroxymethyl)aminomethane (TRIS) buffer (pH7.0). All small molecule compounds are prepared and dissolved by 100% DMSO (dimethyl sulfoxide). HDAC is prepared into the buffer as per certain concentration to be served as the enzyme solution; trypsin and the fluorophore 4-amino-7-coumarin coupled Ac-peptide substrate are prepared into the buffer as per certain concentration to be served as the substrate solution. Adding the compound into the reaction wells of the 384 well plate at the designed concentration, then adding 15 μL HDAC solution into the reaction wells (adding 15 μL blank buffer into the control well 0) for incubation under ambient temperature for 15 min; then adding 10 μL substrate solution to start reaction; during the reaction, the final concentration of HDAC1 protein is 6 nM, trypsin 0.05 μM and Ac-peptide 8 μM.
(§1) Calculating the value of IC50 as per the formula: Y=background data+(top data−background data)/(1+10^((Log IC50−X)*rate of curve))
Where, Y refers to the inhibition ratio (%) and X refers to the compound concentration. […]
Analyzing the result data with the software GraphPad Prism and calculating the value of IC50 as per the formula: Y=background data+(top data−background data)/(1+10^((Log IC50−X)*rate of curve)). Where, Y refers to the inhibition ratio (%) and X refers to the compound concentration.

PI3Kα = molecular target: T2, PI3Kα (Homo sapiens, UniProt P42336); experiment: PI3Kα activity inhibition (Kinase-Glo); assay type: biochemical; conditions: Table 1, graded; read-out: PI3Kα IC50
T2 construct: purchased Invitrogen PV4788
Procedure: Detecting the inhibition capability of the compound to PI3Kα and PI3Kδ activities with Kinase-Glo (purchased from Promege Company; Catalog No.: V3771). […] The reaction system also comprises substrates as PIP2 (4, 5-diphosphoinositide, purchased from Life Technologies Company) and ATP (triphosadenine, purchased from Sigma Company). The reaction buffer system comprises 50 mM HEPES (4-hydroxyethylpiperazine ethane sulfonic acid), 3 mM MgCl2, 1 mM EGTA (ethylene glycol bis(2-amino ethylether)quadrol), 100 mM NaCl, 0.03% CHAPS (3-[3-(cholamidopropyl)dimethylamino]-1-propanesulfonic acid), 2 mM DTT (dithiothreitol). The pH value of the reaction buffer is 7.5. […] Mixing the system evenly for incubation under ambient temperature (for 1 h in PI3Kα test and for 2 h in PI3Kδ test). After incubation, adding 10 μL Kinase-Glo which has been preheated to ambient temperature into each reaction well to terminate the reaction; shaking it in dark place for 15 min after it is mixed evenly, then measuring the fluorescence intensity with a microplate reader and analyzing the result data with the software GraphPad Prism.
as §1
Where, Y refers to the inhibition ratio (%) and X refers to the compound concentration.

[1] = system: MV4-11 cells (acute myeloid leukemia); experiment: Cell proliferation inhibition, MV4-11 (cck-8); assay type: cell-based; conditions: Homo sapiens
Procedure: (§2) The tumor cell lines are purchased from American Type Culture Collection (ATCC) and cultivated to the status of logarithmic growth as per the cultural method recommended by ATCC. The cells in logarithmic phase are spread on a 96 well plate as per 2000-3000/well; as for anchorage-dependent cells, the compound should be added in the test wells at certain concentration for incubation for 96 h after cell adherence. Determining cell proliferation activities with method MTT for tumor cells representing solid tumor model and with method cck-8 for tumor cells representing hematologic tumor model, and analyzing the result data with the software GraphPad Prism.
(§3) Calculating the value of IC50 as per the formula: Y=background data+(top data−background data)/(1+10^((Log IC50−X)*rate of curve)). Where, Y refers to the inhibition ratio (%) and X refers to the compound concentration.

[2] = system: hct116 cells (colon cancer); experiment: Cell proliferation inhibition, hct116 (MTT); assay type: cell-based; conditions: Homo sapiens, HCT-116
Procedure: as §2, §3

[3] = system: A2780s cells (ovarian cancer); experiment: Cell proliferation inhibition, A2780s (MTT); assay type: cell-based; conditions: Homo sapiens, 96 h incubation, read-out: Proliferation IC50, Ovarian cancer A2780s
Procedure: as §2, §3

[4] = Table 1, graded, read-out: HDAC1 IC50
[5] = 96 h incubation, read-out: Proliferation IC50, Acute myeloid leukemia MV4-11
[6] = 96 h incubation, read-out: Proliferation IC50, Colon cancer hct116
[7] = read-out: inhibition value IC50 to the activity of HDAC1

T2 sequence (P42336 whole entry, species assumed): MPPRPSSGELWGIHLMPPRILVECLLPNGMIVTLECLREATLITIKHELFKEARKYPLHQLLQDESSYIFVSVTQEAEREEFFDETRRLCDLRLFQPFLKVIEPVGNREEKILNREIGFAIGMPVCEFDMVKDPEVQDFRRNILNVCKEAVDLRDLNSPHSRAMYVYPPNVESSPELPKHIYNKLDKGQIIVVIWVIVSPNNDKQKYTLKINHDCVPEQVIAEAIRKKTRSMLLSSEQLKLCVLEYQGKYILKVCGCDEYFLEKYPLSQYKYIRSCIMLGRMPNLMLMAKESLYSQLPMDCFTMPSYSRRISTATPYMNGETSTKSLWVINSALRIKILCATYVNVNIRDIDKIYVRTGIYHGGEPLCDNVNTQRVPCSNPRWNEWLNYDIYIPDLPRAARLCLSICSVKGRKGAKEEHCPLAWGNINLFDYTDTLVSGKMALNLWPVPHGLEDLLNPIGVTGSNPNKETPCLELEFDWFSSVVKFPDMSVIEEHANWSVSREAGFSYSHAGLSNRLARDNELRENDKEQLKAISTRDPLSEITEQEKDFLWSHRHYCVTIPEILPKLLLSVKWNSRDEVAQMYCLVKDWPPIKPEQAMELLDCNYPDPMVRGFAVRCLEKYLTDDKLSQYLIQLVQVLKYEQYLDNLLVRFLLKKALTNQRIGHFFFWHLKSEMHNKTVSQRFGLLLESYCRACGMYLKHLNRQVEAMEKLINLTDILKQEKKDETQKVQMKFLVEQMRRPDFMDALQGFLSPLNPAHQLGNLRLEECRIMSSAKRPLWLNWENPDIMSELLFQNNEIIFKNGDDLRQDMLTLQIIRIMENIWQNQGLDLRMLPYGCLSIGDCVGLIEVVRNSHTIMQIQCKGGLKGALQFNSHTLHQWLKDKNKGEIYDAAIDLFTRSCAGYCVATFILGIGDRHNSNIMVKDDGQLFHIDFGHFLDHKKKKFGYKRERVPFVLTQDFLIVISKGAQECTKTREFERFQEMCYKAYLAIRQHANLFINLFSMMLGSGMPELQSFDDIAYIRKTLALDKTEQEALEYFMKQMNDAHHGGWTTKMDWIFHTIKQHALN
T2 sequence (P27986 whole entry partner, species assumed): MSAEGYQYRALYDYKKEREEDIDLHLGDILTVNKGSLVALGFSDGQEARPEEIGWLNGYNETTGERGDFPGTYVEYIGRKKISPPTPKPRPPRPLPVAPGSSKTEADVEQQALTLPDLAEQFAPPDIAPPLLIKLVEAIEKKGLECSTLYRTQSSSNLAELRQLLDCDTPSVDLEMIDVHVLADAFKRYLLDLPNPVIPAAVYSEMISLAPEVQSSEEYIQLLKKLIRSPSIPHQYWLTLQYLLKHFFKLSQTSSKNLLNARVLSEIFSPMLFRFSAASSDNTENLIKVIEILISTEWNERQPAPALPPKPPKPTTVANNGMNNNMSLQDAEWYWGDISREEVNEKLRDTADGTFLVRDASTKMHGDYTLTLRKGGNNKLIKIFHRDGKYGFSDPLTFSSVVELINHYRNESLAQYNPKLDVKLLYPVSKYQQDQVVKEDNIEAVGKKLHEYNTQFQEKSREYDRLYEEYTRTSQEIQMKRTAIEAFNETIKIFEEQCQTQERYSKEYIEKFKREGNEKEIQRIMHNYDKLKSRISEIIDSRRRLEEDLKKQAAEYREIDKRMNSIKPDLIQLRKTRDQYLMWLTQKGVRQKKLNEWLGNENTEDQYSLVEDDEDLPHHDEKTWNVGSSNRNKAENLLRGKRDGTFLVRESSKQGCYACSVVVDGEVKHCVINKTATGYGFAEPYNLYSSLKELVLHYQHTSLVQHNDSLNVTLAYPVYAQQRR
T1 sequence (Q13547 whole entry, species assumed): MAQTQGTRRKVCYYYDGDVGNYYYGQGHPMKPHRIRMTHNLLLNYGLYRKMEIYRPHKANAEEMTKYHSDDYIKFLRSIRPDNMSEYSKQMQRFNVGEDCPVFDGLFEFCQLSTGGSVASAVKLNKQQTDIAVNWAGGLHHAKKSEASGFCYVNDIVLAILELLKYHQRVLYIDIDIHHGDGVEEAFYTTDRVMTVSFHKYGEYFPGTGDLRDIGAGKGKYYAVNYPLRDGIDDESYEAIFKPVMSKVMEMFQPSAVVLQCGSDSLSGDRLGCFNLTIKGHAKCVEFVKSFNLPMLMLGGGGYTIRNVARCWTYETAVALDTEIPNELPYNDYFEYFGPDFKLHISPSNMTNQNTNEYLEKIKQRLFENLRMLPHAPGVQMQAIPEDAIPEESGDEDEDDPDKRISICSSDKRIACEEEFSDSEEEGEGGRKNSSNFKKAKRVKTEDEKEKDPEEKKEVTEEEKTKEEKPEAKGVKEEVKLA

IC50 (HDAC1; [4]) [nM]	IC50 (PI3Kα) [nM]	Compound	other results
< 100	1000 to 10000	CCn1c(CN(C)c2ncc(C(=O)NO)cn2)nc2c(N3CCOCC3)nc(-c3ccc(OC)nc3)nc21 [CLJ-2, 2-(((9-ethyl-2(6-methoxyl 3-pyridyl)-6-morpholino-9H-purine-8-yl))methyl(methyl)amino)-N-hydroxyl pyrimidine-5-formamide]	IC50 [1, 5]: 100 to 1000 nM; IC50 [2, 6]: 100 to 1000 nM; IC50 [3]: 100 to 1000 nM
< 100	1000 to 10000	COc1ccc(-c2nc(N3CCOCC3)c3nc(CN(C)c4ncc(C(=O)NO)cn4)n(C(C)C)c3n2)cn1 [CLJ-3, 2-(((9-isopropyl-2-(6-methoxyl-3-pyridyl)-6-morpholino-9H-purine-8-yl))methyl(methyl)amino)-N-hydroxyl pyrimidine-5-formamide]	IC50 [1, 5]: > 1000 nM; IC50 [2, 6]: > 1000 nM; IC50 [3]: > 1000 nM
< 100	1000 to 10000	COc1ccc(-c2nc(N3CCOCC3)c3nc(CN(C)c4ncc(C(=O)NO)cn4)n(C4CCCC4)c3n2)cn1 [CLJ-4, 2-(((9-cyclopentyl-2-(6-methoxyl-3-pyridyl)-6-morpholino-9H-purine-8-yl))methyl(methyl)amino)-N-hydroxyl pyrimidine-5-formamide]	IC50 [1, 5]: > 1000 nM; IC50 [2, 6]: > 1000 nM; IC50 [3]: > 1000 nM
< 100	> 10000	CN(Cc1nc2c(N3CCOCC3)nc(-c3ccc(N)nc3)nc2n1C)c1ncc(C(=O)NO)cn1 [CLJ-7, 2-(((2-(p-amino-3-pyridyl)-9-methyl-6-morpholine-9H-purine-8-yl))methyl(methyl)amino)-N-hydroxyl pyrimidine-5-formamide]	IC50 [1, 5]: 0.1 to 10 nM; IC50 ([1]; read-out: IC50 to proliferation of MV4-11 cells): < 10 nM; IC50 [2, 6]: 100 to 1000 nM; IC50 ([2]; read-out: IC50 to proliferation of hct116 cells): > 100 nM; IC50 [3]: 10 to 100 nM
< 1	> 10000	CN(Cc1nc2c(N3CCOCC3)nc(-c3cccnc3)nc2n1C)c1ncc(C(=O)NO)cn1 [CLJ-9, 2-(((2-(3-pyridyl)-9-methyl-6-morpholine-9H-purine-8-yl))methyl(methyl)amino)-N-hydroxyl pyrimidine-5-formamide]	IC50 (HDAC1; [7]): < 1 nM; IC50 [1, 5]: 0.1 to 10 nM; IC50 [2, 6]: 10 to 100 nM; IC50 [3]: 10 to 100 nM
1000 to 10000	> 10000	CCCCN(Cc1nc2c(N3CCOCC3)nc(-c3ccc(NC)cc3)nc2n1C)c1ncc(C(=O)NO)cn1 [CLJ-47, N-hydroxy-2-(((2-(4-methylaminophenyl)-9-methyl-6-morpholine-9H-purine-8-yl)methyl)(butyl)amino)pyrimidine-5-formamide]	
< 100	> 10000	CN(Cc1nc2c(N3CCOCC3)nc(-c3ccc(NS(=O)(=O)CCCCl)cc3)nc2n1C)c1ncc(C(=O)NO)cn1 [CLJ-51]	
< 100	> 10000	CN(Cc1nc2c(N3CCOCC3)nc(-c3ccc(NC(=O)OC(C)(C)C)cc3)nc2n1C)c1ncc(C(=O)NO)cn1 [CLJ-52]	
< 100	> 10000	CN(Cc1nc2c(N3CCOCC3)nc(-c3ccccc3NS(C)(=O)=O)nc2n1C)c1ncc(C(=O)NO)cn1 [CLJ-53]	
< 100	> 10000	CN(Cc1nc2c(N3CCOCC3)nc(-c3ccc(S(=O)(=O)NCCCCl)cc3)nc2n1C)c1ncc(C(=O)NO)cn1 [CLJ-58, 2-(((2-(4-(N-(3-chloropropyl)sulfonamide)phenyl)-9-methyl-6-morpholine-9H-purine-8-yl))methyl(methyl)amino)-N-hydroxyl pyrimidine-5-formamide]	
< 100	> 10000	CN(Cc1nc2c(N3CCOCC3)nc(-c3cccc(S(=O)(=O)NCO)c3)nc2n1C)c1ncc(C(=O)NO)cn1 [CLJ-59, 2-(((2-(3-(N-(hydroxymethyl)sulfonamide)phenyl)-9-methyl-6-morpholine-9H-purine-8-yl))methyl(methyl)amino)-N-hydroxyl pyrimidine-5-formamide]	
< 100	> 10000	CCc1ccc(-c2nc(N3CCOCC3)c3nc(CN(C)c4ncc(C(=O)NO)cn4)n(C)c3n2)cc1 [CLJ-61, 2-(((2-(4-ethylphenyl)-9-methyl-6-morpholine-9H-purine-8-yl))methyl(methyl)amino)-N-hydroxyl pyrimidine-5-formamide]	
< 100	> 10000	CCCc1ccc(-c2nc(N3CCOCC3)c3nc(CN(C)c4ncc(C(=O)NO)cn4)n(C)c3n2)cc1 [CLJ-62, 2-(((2-(4-propylphenyl)-9-methyl-6-morpholine-9H-purine-8-yl))methyl(methyl)amino)-N-hydroxyl pyrimidine-5-formamide]	
< 100	> 10000	CN(Cc1nc2c(N3CCOCC3)nc(-c3ccc(C(C)(C)C)cc3)nc2n1C)c1ncc(C(=O)NO)cn1 [CLJ-63]	
< 100	> 10000	CN(Cc1nc2c(N3CCOCC3)nc(-c3cccc(C(N)=O)c3)nc2n1C)c1ncc(C(=O)NO)cn1 [CLJ-64, 2-(((2-(3-carbamoylphenyl)-9-methyl-6-morpholine-9H-purine-8-yl))methyl(methyl)amino)-N-hydroxyl pyrimidine-5-formamide]	
< 100	> 10000	CN(Cc1nc2c(N3CCOCC3)nc(-c3cccc(C(=O)NCCO)c3)nc2n1C)c1ncc(C(=O)NO)cn1 [CLJ-65, 2-(((2-(3-(N-(hydroxyethyl)acylamino)phenyl)-9-methyl-6-morpholine-9H-purine-8-yl))methyl(methyl)amino)-N-hydroxyl pyrimidine-5-formamide]	
< 100	> 10000	CN(Cc1nc2c(N3CCOCC3)nc(-c3cccc(C(=O)N4CCN(CO)CC4)c3)nc2n1C)c1ncc(C(=O)NO)cn1 [CLJ-66, 2-(((2-(3-(4-(hydroxymethyl)piperazine-1-carbonyl)phenyl)-9-methyl-6-morpholine-9H-purine-8-yl))methyl(methyl)amino)-N-hydroxyl pyrimidine-5-formamide]	
< 1	> 10000	CN(Cc1nc2c(N3CCOCC3)nc(-c3ccc(CN4CCOCC4)cc3)nc2n1C)c1ncc(C(=O)NO)cn1 [CLJ-67]	IC50 (HDAC1; [7]): < 1 nM
< 100	> 10000	COc1ccc(-c2nc(N3CCNCC3)c3nc(CN(C)c4ncc(C(=O)NO)cn4)n(C)c3n2)cc1 [CLJ-69, N-hydroxy-2-(((2-(4-methoxyphenyl)-9-methyl-6-(piperazine-1-yl)-9H-purine-8-yl)methyl)(methyl)amino)pyrimidine-5-formamide]	
< 100	> 10000	COc1ccc(-c2nc(N3CCN(CCO)CC3)c3nc(CN(C)c4ncc(C(=O)NO)cn4)n(C)c3n2)cc1 [CLJ-70, N-hydroxy-2-(((2-(4-methoxyphenyl)-9-methyl-6-(4-(2-hydroxyethylpiperazine)-1-yl)-9H-purine-8-yl)methyl)(methyl)amino)pyrimidine-5-formamide]	
		Nc1cc(F)ccc1NC(=O)c1ccc(CNC(=O)/C=C/c2cccnc2)cc1 [Chidamide, chidamide, reference compound]	IC50 [1, 5]: 100 to 1000 nM; IC50 [2, 6]: > 1000 nM; IC50 [3]: > 1000 nM

Compound	IC50 (HDAC1; [4]) [nM]	IC50 (PI3Kα) [nM]	other results
CN(Cc1nc2c(N3CCOCC3)nc(-c3cccc(NS(=O)(=O)CCCl)c3)nc2n1C)c1ncc(C(=O)NO)cn1 [CLJ-50, 2-(((2-(3-(2-chloroethylsulfonamide)phenyl)-9-methyl-6-morpholine-9H-purine-8-yl))methyl(methyl)amino)-N-hydroxyl pyrimidine-5-formamide]		> 10000	IC50 (HDAC1): < 100 nM
